Experimental data taken from US7781565B2 (priority 2006, dated 2010).
“Also recorded” adds a separate entry of the source.

system: NCI-60 cell lines; format: cell-based, human

Substance	Cell Line with which the peptide (and its tripeptide motif) is associated	Cell Line the peptide is associated with (peptide recovered from phage library selection on this NCI-60 cell line)	Cell Line (NCI-60 cell line the peptide and its motif are associated with)	Cell Line (NCI-60 cell line the peptide is associated with)
SWGSGGS	Hop-92-Lung			
SWRPLVS	Hop-62-Lung			
SYFRAGR	H23-Lung			
SYGLVLP	Hop-92-Lung			
SYMGAAS		SN12C Renal		
SYWVGSS		MCF-7 Breast		
TAAAVLL			OVCAR-5 Ovarian	
TAAGSSF		HS 578 T Breast		
TAGGAVG				SW620-Colon
TAGRLEV		RXF393 Renal		
TAGSSRL	H322-Lung			
TATGGLL			OVCAR-8 Ovarian	
TCGGRSY			SK-MEL-2 Melanoma	
TDGVRAF			UACC 257 Melanoma	
TDLAGLH	RPMI-8226-Leukemia			
TEGSVTV	HL-60-Leukemia			
TEGTRGV		RXF393 Renal		
TELVSWS	H322-Lung			
TFAGLAQ		BT-549 Breast		
TFAGRSL			A498 Renal	
TFGKGGL	HL-60-Leukemia			
TFRGAGV		MDA-MB-231 Breast		
TGFGAVG	HL-60-Leukemia			
TGGLHWY		TK-10 Renal		
TGGSLGA	EKVX-Lung			
TGGSLLG			IGROV1 Ovarian	

Substance	Cell Line with which the peptide (and its tripeptide motif) is associated	Cell Line the peptide is associated with (peptide recovered from phage library selection on this NCI-60 cell line)	Cell Line (NCI-60 cell line the peptide and its motif are associated with)	Cell Line (NCI-60 cell line the peptide is associated with)
TGLLRLY		RXF393 Renal		
TGRLSAA			UACC62 Melanoma	
TGRSSFW		TK-10 Renal		
TGRVVRR	CCRF-CEM Leukemia			
TGVRNSP		UO31 Renal		
THRNRSS	SR Leukemia			
THVGGVR			OVCAR-8 Ovarian	
TICLGLG		CAIK-1 Renal		
TIPAGGG		MDA-MB-231 Breast		
TLGGLRT				SF-295 CNS
TLGLRVP		TK-10 Renal		
TLGRLSS			DU-145 Prostate	
TLGSVRV			SK-MEL-5 Melanoma	
TLGVLVT		NCI/ADR-RES Breast		
TLTAAVF			UACC 257 Melanoma	
TLVLGGS	Hop-92-Lung			
TNRFARG		T-47D Breast		
TQVEARG		HS 578 T Breast		
TQYYGSS				SNB-19 CNS; also recorded: SF-539 CNS
TRASRRG				SNB-75 CNS
TRDGVRW		RXF393 Renal		
TREGGLD				KM-12C Colon
TRGAVFG			SK-MEL-5 Melanoma	
TRGDAVS				SF-295 CNS
TRGSGAG		HS 578 T Breast		
TRGVIGG		T-47D Breast		

Substance	Cell Line with which the peptide (and its tripeptide motif) is associated	Cell Line the peptide is associated with (peptide recovered from phage library selection on this NCI-60 cell line)	Cell Line (NCI-60 cell line the peptide and its motif are associated with)	Cell Line (NCI-60 cell line the peptide is associated with)
TRLGGLT				SF-295 CNS
TRLSFRH			SK-OV-3-3 Ovarian	
TRRGRLD		SN12C Renal		
TRSSLTH		TK-10 Renal		
TRVSGSG		BT-549 Breast		
TRYSLRS		TK-10 Renal		
TSGAVAP		HS 578 T Breast		
TSGRLWV			M14 Melanoma	
TSLLSFR	CCRF-CEM Leukemia			
TSRGLRL			UACC 257 Melanoma	
TTGSVIV	H23-Lung			
TTLLSRQ			OVCAR-5 Ovarian	
TTQLRGV			UACC62 Melanoma	
TVGSGCL				HCT-116 Colon
TVGSSLG		T-47D Breast		
TWGRLGL		ACHN Renal		
TWHAGGI		ACHN Renal		
TWIGRVS				LOX-IMVI Melanoma
TWSTGGR				LOX-IMVI Melanoma
TYCDRAV		BT-549 Breast		
VAASESH	Hop-62-Lung			
VAASVRE			OVCAR-3 Ovarian	
VAELLSM			OVCAR-5 Ovarian	
VAGRLQM			OVCAR-4 Ovarian	
VAGRVGI			MALME-3M Melanoma	MALME-3M Melanoma
VALGVSS		T-47D Breast		

Substance	Cell Line with which the peptide (and its tripeptide motif) is associated	Cell Line the peptide is associated with (peptide recovered from phage library selection on this NCI-60 cell line)	Cell Line (NCI-60 cell line the peptide and its motif are associated with)	Cell Line (NCI-60 cell line the peptide is associated with)
VARAVPC	Hop-92-Lung			
VARGQMQ	H226-Lung			
VARSSFR			IGROV1 Ovarian	
VAVGVRS		HS 578 T Breast		
VAWRGVS	A549-Lung			
VDGSGDD			DU-145 Prostate	
VDLRSAF		ACHN Renal		
VDVGGAG			786-0 Renal	
VEEGRLR				SW620-Colon
VEYAAGR	CCRF-CEM Leukemia			
VFQRSSG	A549-Lung			
VGAGRFT		MDA-MB-231 Breast		
VGAVYFL	H322-Lung			
VGIGAGG		T-47D Breast		
VGLGHWP	Hop-62-Lung			
VGLGNSA			SK-MEL-2 Melanoma	
VGLRCSV		BT-549 Breast		
VGLRDWG				SW620-Colon
VGLRVRF		BT-549 Breast		
VGPSVHL			786-0 Renal	
VGRAGGL		MDA-MB-231 Breast		
VGRGRLH	EKVX-Lung			
VGRLAKG	Hop-62-Lung			
VGRLQTT			UACC62 Melanoma	
VGSSHGL			SK-MEL-28 Melanoma	
VGSTRSS			SK-MEL-28 Melanoma	

Substance	Cell Line with which the peptide (and its tripeptide motif) is associated	Cell Line the peptide is associated with (peptide recovered from phage library selection on this NCI-60 cell line)	Cell Line (NCI-60 cell line the peptide and its motif are associated with)	Cell Line (NCI-60 cell line the peptide is associated with)
VGSVGLG	Hop-62-Lung			
VGSVKAS			PC3 Prostate	
VGSVSVN	A549-Lung			
VGSVVGR	Hop-92-Lung			
VGVMGGR		CAIK-1 Renal		
VGVRFSR			SK-MEL-28 Melanoma	
VGVSQEW		TK-10 Renal		
VHKRAVL		UO31 Renal		
VHRVSGG	RPMI-8226-Leukemia			
VHSLRAS			UACC 257 Melanoma	
VIGSRLS	EKVX-Lung			
VIVRGSL		UO31 Renal		
VKGSSMR		A498 Renal		
VLASLSG			IGROV1 Ovarian	
VLFSAGS	K-562-Leukemia			
VLGMRSS	SR Leukemia			
VLLSAGL		RXF393 Renal		
VLRAASR				HT-29 Colon
VLRGSTP			PC3 Prostate	
VLRSALQ				KM-12C Colon
VLRSGEL				SF-295 CNS
VLRSIPS				SF-295 CNS
VLSAVSS				SNB-19 CNS; also recorded: SF-539 CNS
VLTRAST				HCC-2998-Colon
